Test results published in PubChem BioAssay (NCI).
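Compound exposure: 48 hours, 5 concentrations, 96-well plates. At the GI50, growth is halved. TGI: total growth inhibition.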

Tests used:
Test in all cases: NCI-60 cell line screen, 48 h
SNB-78 CNS = system: SNB-78 CNS
HOP-18 NSCLC = system: HOP-18 NSCLC
DMS 273 small cell lung = system: DMS 273 small cell lung
M19-MEL melanoma = system: M19-MEL melanoma
MCF7 breast = system: MCF7 breast
BT-549 breast = system: BT-549 breast
MDA-MB-231 breast = system: MDA-MB-231 breast
T-47D breast = system: T-47D breast
NCI/ADR-RES ovarian = system: NCI/ADR-RES ovarian
DU-145 prostate = system: DU-145 prostate

SMILES | TGI (SNB-78 CNS) | TGI (HOP-18 NSCLC) | TGI (DMS 273 small cell lung) | TGI (M19-MEL melanoma) | other results
NC(=O)c1ccccc1NC(=O)C(=O)C(C(=O)c1ccc2ccccc2c1)C1OC(=O)c2ccccc21 (centres undefined) | > 100 µM | 22.7 µM | 38.5 µM | 25.5 µM | 
Cc1c2ccccc2c(C)c2c3c(ccc12)C(=O)C=CC3=O | 38 µM | > 69.3 µM | > 100 µM | 35.8 µM | 
C/C(CN1C(=O)c2ccccc2C1=O)=N\NS(=O)(=O)c1ccccc1 | > 100 µM | > 100 µM | > 100 µM | > 100 µM | 
CCOP(=O)(CCP(=O)(OCC)OCC)OCC.C[CH2][Sn]([Cl])([Cl])[CH2]C | 41.8 µM | 35 µM | > 100 µM | > 60.4 µM | GI50 (MCF7 breast): 21.6 µM; TGI (MCF7 breast): 44.4 µM; GI50 (BT-549 breast): 17.8 µM; TGI (BT-549 breast): 33.8 µM; GI50 (SNB-78 CNS): 17.2 µM; GI50 (MDA-MB-231 breast): 25 µM; TGI (MDA-MB-231 breast): 92.2 µM; GI50 (T-47D breast): 18.5 µM; TGI (T-47D breast): 40.9 µM; GI50 (NCI/ADR-RES ovarian): > 100 µM; TGI (NCI/ADR-RES ovarian): > 100 µM; GI50 (HOP-18 NSCLC): 20.7 µM; GI50 (DMS 273 small cell lung): > 75.1 µM; GI50 (DU-145 prostate): > 100 µM; TGI (DU-145 prostate): > 100 µM; GI50 (M19-MEL melanoma): 24.8 µM
COc1c(OC(C)=O)cc2c(OC(C)=O)c1CC(C)CC(OC)C(O)C(C)/C=C(\C)C(OC(N)=O)C(OC)/C=C\C=C(/C)C(=O)N2 (centres undefined) | > 100 µM | > 100 µM | > 100 µM | > 100 µM | 
OC(c1ccccc1)(c1ccccc1)c1ccccn1 | > 100 µM | > 100 µM | > 100 µM | > 100 µM | 
CN(C)CCNC(=O)c1cccc2nc3ccc4ccccc4c3nc12 | 10 µM | 0.446 µM | 0.246 µM | 0.224 µM | 
COc1ccc2c(=O)c([Se]c3coc4cc(OC)ccc4c3=O)coc2c1 | 67 µM | > 100 µM | > 100 µM | > 100 µM | 
CCC(=O)C1=C(OC(C)=O)C2Cc3c(n(C)c4ccccc34)C(C1)N2C (centres undefined) | 56.4 µM | > 100 µM | 41.7 µM | > 100 µM | 
CC(C)(O)[C@@H]1CCC(C)([C@H]2[C@@H](O)CC3(C)C4CC(OC5OC(CO)C(O)C(O)C5O)C5C(C)(C)[C@@H](OC6OCC(O)C(O)C6O)CC[C@@]56C[C@@]46CC[C@]23C)O1 (some centres undefined) | > 100 µM | > 100 µM | > 100 µM | > 100 µM | 
CC(=O)CC(=O)CCCC(=O)Nc1ccc(Cl)cc1C | > 100 µM | > 100 µM | > 100 µM | > 100 µM | 
O=c1[nH]c(=S)[nH]c2c1sc(=S)n2-c1ccccc1 | > 100 µM | > 100 µM | > 100 µM | > 100 µM | 
